Measured values as given in patent US12290519B2, “Anti-inflammatory coupling compound drug, and preparation method therefor and use thereof” (COVAL BIOPHARMA (SHANGHAI) CO., LTD., priority 2021, dated 2025).

What was measured:
[1] = Hydrolysis rate / drug release rate of the compounds (release of JAK inhibitor, HPLC); assay type: physicochemical; settings: % release of JAK inhibitor from sample in acetonitrile/water=7/3 (v/v), 37° C. constant temperature shaker, sampled days 1-4, HPLC
Outline: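 Compounds (about 5 mg per 20 mL) were dissolved in acetonitrile/water 7/3 (v/v) and held sealed at 37° C in a shaker, sampled on days 0, 1, 2, 3 and 4. Released JAK inhibitor was quantified by HPLC peak area against a 0.0002–0.08 mg/mL reference curve and expressed as % release corrected for molecular weights.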

[2] = test system: IMQ-induced psoriasis mouse model; experiment: IMQ-induced psoriasis mouse model, PASI score of compound ointments applied to skin; assay type: in vivo; settings: ointment 20 mg/g, 50 mg, skin smear BID, day 1 to day 9; BALB/c mice, 5% IMQ cream; Two-way ANOVA p<0.05
Experimental: Efficacy Evaluation Study of Ointment Transdermal Patch Formulated by Compounds Using IMQ-Induced Psoriasis Mouse Model
BALB/c mice (male) aged 6-8 weeks were selected to have depilated back skin with an area of 2×3 cm. 5% IMQ cream 62.5 mg was applied once a day for 9 consecutive days for model induction. Mice were housed in an SPF-grade animal room in IVC cages at a temperature of 20-26° C. and a humidity of 40-70% under a 12-hour light-dark cycle. Diet ad libitum, except where fasting is required.
Mice were randomly divided into groups, a number of 8 mice, administration concentration 20 mg/g, administration amount 50 mg, administration route, and frequency: skin smear, BID. The positive control was compound dexamethasone acetate (Dex) cream which is a commercially available product with a Dex content of 0.75 mg/g (999 Piyanping, Sanjiu Pharmaceutical). Dosing started from day 1 (the first day) (the day of model induction) to day 9.
2. Preparation of Test Ointment
Topical preparations are mostly semi-solid dosage forms. The base and solvent of a semi-solid dosage form are generally widely used in medicine and daily chemical products. The excipients which can be added are also the common excipients in the manual of excipients. Therefore, the patent compounds are prepared into corresponding test ointments. The ointment compound was dissolved with diisopropyl adipate to prepare a vaseline-based ointment. In order to improve the stability of the ointment, microcrystalline cellulose was added as an excipient in the formulation. The white vaseline has a melting point of 45-60° C. The solution, white vaseline, and microcrystalline cellulose are thoroughly mixed while the vaseline is in a molten state. After cooling to solidification, it was divided into an aluminum ointment, and the specific weight ratios of base, solvent, and excipients are shown in Table 4.
Dorsal modeling site skin PASI was performed on the experimental animals.
Statistical analysis of PASI scores was performed using Two-way ANOVA. All data were analyzed using GraphPad Prism 8.0 software with a p<0.05 significant difference (*, p<0.05; **, p<0.01).
The PASI score curves of CPD-029, CPD-028, CPD-027, CPD-017, and CPD-002 compared with the model group, excipient group, and Dex cream group are shown in FIGS. 1, 2, 3, 4, and 5, respectively. Among them, the model group was treated with 62.5 mg of 5% IMQ cream applied to the back skin of mice once daily to induce psoriasis, and the excipient group was treated with 15% (w/w) diisopropyl adipate, 80% vaseline, and […].

Row | Compound | Release Rate (%/day) [1] [%/day] | PASI score: therapeutic effect compared with the excipient group [2]
1 | CC(C)Cc1ccc([C@H](C)C(=O)n2ccc3c(N(C)[C@H]4CN(C(=O)CC#N)CC[C@H]4C)ncnc32)cc1 [Ex. 2, 3-((3R,4R)-3-((7-((S)-2-(4-isobutylphenyl)propanoyl)-7H-pyrrolo[2,3-d]pyrimidin-4-yl) (methyl)amino)-4-methylpiperidin-1-yl)-3-oxopropanenitrile] | 8.5 | significant therapeutic effect in day 4 day 8
2 | CCS(=O)(=O)N1CC(CC#N)(n2cc(-c3ncnc4c3ccn4C(=O)[C@@H](C)c3ccc(CC(C)C)cc3)cn2)C1 [Ex. 17, (S)-2-(1-(ethylsulfonyl)-3-(4-(7-(2-(4-isobutyl-phenyl)propanoyl)-7H-pyrrolo[2,3-d]pyrimidin-4-yl)-1H-pyrazol-1-yl)azetidin-3-yl)acetonitrile] | 2.44 | significant therapeutic effect in day 5-day 10
3 | CNS(=O)(=O)CC1CCC(N(C)c2ncnc3c2ccn3C(=O)[C@@H](C)c2ccc(CC(C)C)cc2)CC1 (stereo partly drawn) [Ex. 27, 1-((1S, 4R)-4-((7-((S)-2-(4-isobutylphenyl)propanoyl)-7H-pyrrolo [2,3-d]pyrimidin-4-yl) (methyl)amino)cyclohexyl)-N-methyl methanesulfonamide] | 7.48 | significant therapeutic effect in day 5-day 10
4 | CC(C)Cc1ccc([C@H](C)C(=O)n2ccc3c(-c4cnn([C@H](CC#N)C5CCCC5)c4)ncnc32)cc1 [Ex. 28] | 2.98 | significant therapeutic effect in day 5-day 10
5 | CCC(C(=O)n1ccc2c(N(C)[C@H]3CN(C(=O)CC#N)CC[C@H]3C)ncnc21)c1ccc(N2Cc3ccccc3C2=O)cc1 (stereo partly drawn) [Ex. 29, 3-((3R, 4R)-4-methyl-3-(methyl (7-(2-(4-(1-oxoisoindolin-2-yl)phenyl)butanoyl)-7H-pyrrolo [2,3-d]pyrimidin-4-yl)amino)piperidin-1-yl)-3-oxopropanenitrile] | 7.08 | significant therapeutic effect in day 5-day 10
6 | CC(C)Cc1ccc([C@H](C)C(=O)n2ccc3c(N4CC[C@]5(C4)[C@@H](C)CN5C(=O)CC#N)ncnc32)cc1 [Ex. 140, 3-((3S, 4R)-6-(7-((S)-2-(4-isobutylphenyl)propanoyl)-7H-pyrrolo [2,3-d]pyrimidin-4-yl)-3-methyl-1,6-diazaspiro [3.4]oct-1-yl)-3-oxopropanenitrile] | 8.10 | –
7 | Cc1cnc(NC(=O)C2=C(OCn3ccc4c(N(C)[C@H]5CN(C(=O)CC#N)CC[C@H]5C)ncnc43)c3ccccc3S(=O)(=O)N2C)s1 [Ex. 142, 4-((4-(((3R, 4R)-1-(2-cyanoacetyl)-4-methylpiperidin-3-yl) (methyl)amino)-7H-pyrrolo [2,3-d]pyrimidin-7-yl)methoxy)-2-methyl-N-(5-methylthiazol-2-yl)-2H-benzo [e] [1, 2] thiazine-3-carboxamide 1,1-dioxide] | 0.05 | –
8 | CCC(C(=O)n1ccc2c(N3CC[C@]4(C3)[C@@H](C)CN4C(=O)CC#N)ncnc21)c1ccc(N2Cc3ccccc3C2=O)cc1 (stereo partly drawn) [Ex. 143, 3-((3S, 4R)-3-methyl-6-(7-(2-(4-(1-oxoisoindolin-2-yl)phenyl)butanoyl)-7H-pyrrolo [2,3-d]pyrimidin-4-yl)-1,6-diazaspiro [3.4]octan-1-yl)-3-oxopropanenitrile] | 4.29 | –
9 | CC(C)Cc1ccc([C@H](C)C(=O)OCn2ccc3c(N4CC[C@]5(C4)[C@@H](C)CN5C(=O)CC#N)ncnc32)cc1 [Ex. 144, (4-((3S, 4R)-1-(2-cyanoacetyl)-3-methyl-1,6-diazaspiro [3.4]octan-6-yl)-7H-pyrrolo [2,3-d]pyrimidin-7-yl) methyl (S)-2-(4-isobutylphenyl) propanoate] | 0.05 | –
